Source: publication PMC6687188, “Novel lactate dehydrogenase inhibitors with in vivo efficacy against Cryptosporidium parvum” (PLoS Pathogens, 2019)

What follows are compounds tested against recombinant CpLDH protein (Cryptosporidium parvum, UniProt Q9GT92, F198L/K295E/R251K).

Row | SMILES | MEAN CpLDH INHIBITION (%)
1 | COc1ccc2nc(NC(=O)C(=O)CC(=O)c3ccc(Cl)cc3)sc2c1 [NSC623059] | -31.35%
2 | O=C1C(c2cnc3ccccc3n2)=C(O)c2ccccc21 [NSC634224] | -37.07%
3 | OCCNCN(CNCCO)c1nc(N(CNCCO)CNCCO)nc(N(CNCCO)CNCCO)n1 [NSC653000] | -58.42%
4 | O=C1c2ccccc2C(=O)c2c(NCCNCCO)ccc(O)c21 [NSC299187] | -23.00%
5 | COc1ccc(-c2csc(=[N+]3CCCCC3)s2)cc1 [NSC302358] | 0.36%
6 | C=C1C(=O)O[C@@H]2C[C@@H](C)[C@@H]3C=CC(=O)[C@@]3(C)[C@@H](O)[C@H]12 [NSC85236] | -30.32%
7 | COc1cc([C@@H]2c3cc4c(cc3C[C@H]3COC(=O)[C@@H]32)OCO4)cc(OC)c1OC [NSC403148] | -8.59%
8 | Cc1ccc(N=Nc2c(O)ccc3ccccc23)cc1 [NSC106296] | -44.71%
9 | CO[C@H]1[C@@H](O)[C@@H](C)O[C@H](O[C@H]2[C@H](Oc3cccc4c(O)c5c(=O)oc6ccc(C)c7c(=O)oc(c34)c5c67)O[C@H](C)[C@H](O)[C@@H]2O)[C@@H]1O [NSC5159] | -38.07%
10 | CN(CCc1ccccn1)c1ccc2c(c1)C(=O)c1ccccc1-2 [NSC24048] | -65.48%
11 | O=c1ccc2ccc(CBr)cc2o1 [NSC99027] | -71.89%
12 | COCCOC1=C(Cl)C(=O)c2c(O)ccc(O)c2C1=O [NSC659997] | -9.35%
13 | CO[C@H]1Nc2c(ccc(C)c2O)C(=O)N2C=C(/C=C/C(N)=O)C[C@@H]12 [NSC106408] | -29.99%
14 | Cc1cc([N+](=O)[O-])ccc1Nc1cccc(Cl)c1C [NSC625641] | -6.68%
15 | CC1(c2cccc3ccccc23)OC(=O)c2ccccc21 (centres unmarked) [NSC97703] | -3.23%
16 | COC(=O)Nc1nc2ccc(Br)cc2[nH]1 [NSC154754] | -36.36%
17 | O=Nc1ccc(O)c2ncccc12 [NSC3852] | -37.64%
18 | N#CC(C#N)=Cc1ccc(Oc2ccccc2)cc1 [NSC643028] | -52.45%
19 | Cc1cc(C)c(NC(=O)/C=C/c2ccccc2)c(C)c1 [NSC191384] | -34.30%
20 | Cc1cc(O)c(C(C)C)cc1C1(c2cc(C(C)C)c(O)cc2C)OC(=O)c2ccccc21 [NSC2186] | -64.59%
21 | COc1ccc(-c2cc(=O)c3c(OC)c(OC)c(OC)cc3o2)cc1 [NSC53908] | -32.76%

Row | SMILES | MEAN CpLDH INHIBITION (%)
22 | CC1=C/C(=N\OCC(=O)O)CC(c2ccc(C(C)C)cc2)C1 (centres unmarked) [NSC680506] | -8.88%
23 | CCN(CC)CCCNc1ncc(C)c2[nH]c3ccncc3c12.O=C(O)/C=C\C(=O)O [NSC625331] | -26.39%
24 | COc1ccc(S(=O)(=O)N/N=C/C(=O)O)cc1 [NSC267213] | -67.55%
25 | Cc1c2ccncc2c(C)c2c1sc1ccccc12 [NSC119686] | -46.09%
26 | COc1ccc2c(O)c3[n+](cc2c1OC)CCc1cc2c(cc1-3)OCO2 [NSC123390] | -31.27%
27 | CCOC(=O)CCc1c(C)c2c(O)cc(O)cc2oc1=O [NSC622616] | -39.56%
28 | C(=N\NC1=NCCN1)/c1c2ccccc2c(/C=N/NC2=NCCN2)c2ccccc12 [NSC337766] | -53.76%
29 | C=C1C(=O)C2=CC1CCC(=O)C1(C)CCC(OC(C)=O)C(C)(C)C1CC2O (centres unmarked) [NSC302979] | -1.17%
30 | N#CC(=C1C=CC(=NO)C=C1)c1ccc(Cl)cc1 [NSC405158] | -30.77%
31 | O=C(CC1(O)C(=O)Nc2c(Cl)ccc(Cl)c21)c1ccc(Cl)cc1Cl (centres unmarked) [NSC635436] | -79.39%
32 | Cc1cc(O)c(/C=N/C(N)=S)c(=O)o1 [NSC657449] | -13.90%
33 | BrCCC[P+](c1ccccc1)(c1ccccc1)c1ccccc1.[Br-] [NSC84074] | -40.93%
34 | CC(=O)[O][Sn]([CH2]c1ccccc1)([CH2]c1ccccc1)[CH2]c1ccccc1 [NSC164909] | -58.07%
35 | O=C1c2ccccc2C(=O)c2c(O)c(NCCNCCO)cc(O)c21 [NSC316157] | -4.71%
36 | Nc1ncnc2c1nnn2[C@@H]1O[C@H](CO)[C@@H](O)[C@H]1O [NSC72961] | -2.40%
37 | CS(=O)(=O)c1nc(N)nc2nc[nH]c12 [NSC63446] | -4.16%
38 | Cc1ccc(NC(=S)C#N)c(C)c1 [NSC369318] | -37.61%
39 | Cc1cc(NC(=O)NC(=O)c2ccccc2NC(=O)CN)ccc1Oc1ncc(Br)cn1.Cl [NSC654259] | -46.44%
40 | C=C1CC(Cn2cc(Br)c(=O)[nH]c2=O)(c2ccc(-c3ccccc3)cc2)OC1=O (centres unmarked) [NSC668260] | -9.25%
41 | CCCC/C=C/C=C/C=C/CCCCCCCC(=O)OCC(COC(=O)CCCCCCC/C=C/C1C=CC(CCCC)C(C(=O)O)C1C(=O)O)OC(=O)CCCCCCC/C=C/C=C/C=C/CCCC.OCCNCO (centres unmarked) [NSC643834] | -1.59%
42 | CC1=C2C(=CO[C@H](C)[C@H]2C)C(=O)C(C(=O)O)=C1O [NSC186] | -47.49%

Row | SMILES | MEAN CpLDH INHIBITION (%)
43 | Nc1nc(SCCc2ccccc2)c2[nH]cnc2n1 [NSC35866] | -7.39%
44 | O=C(NCCCCCCCCNC(=O)c1cccc2ccccc12)c1cccc2ccccc12 [NSC629738] | -0.22%
45 | O=C1C2=Nc3ccccc3C(O)N2c2ccccc21 (centres unmarked) [NSC292147] | -13.84%
46 | COc1ccc(NC(=O)C(=O)/C=C(\O)c2ccccc2)cc1 [NSC658709] | -17.00%
47 | Cc1cc2c(cc1C)[n+](=O)c(C(=O)/C=C/c1ccccc1[N+](=O)[O-])c(C)n2[O-] [NSC621486] | -0.42%
48 | O=C(O)CC(S)C(=O)O (centres unmarked) [NSC41809] | -14.35%
49 | CCN(CC)CCOC(=O)Cc1cccc2c(=O)cc(-c3ccccc3)oc12 [NSC293015] | -3.81%
50 | CCN(CC)CCNc1ccc2nc(C)n3c4ccc(OC)cc4c(=O)c1c23 [NSC637993] | -46.33%
51 | Cc1ccc(S(=O)(=O)ON=C2CC(c3ccccc3)N(C)C(c3ccccc3)C2)cc1 (centres unmarked) [NSC351306] | -39.05%
52 | O=C1c2ccccc2C(=O)c2sc(Nc3ccc(Cl)cc3)nc21 [NSC631529] | -18.60%
53 | Cc1ccc(S(=O)(=O)N2CCSCCSCCSCCSCC2)cc1 [NSC650792] | -46.61%
54 | CC(=O)NCCCCCCNC(C)=O [NSC95580] | -114.38%
55 | Cc1ccccc1NC(=O)/C=N/O [NSC625639] | -116.71%
56 | COc1ccc(C2=Nc3ccccc3SC(C)C2)cc1 (centres unmarked) [NSC636817] | -5.00%
57 | CC(=O)c1c(O)c(C)c(O)c2c1OC1=CC(=O)C(C(C)=O)C(=O)C12C (centres unmarked) [NSC5890] | -32.64%
58 | O=C1N[C@@H]2C(=C[C@H](O)[C@@H](O)[C@H]2O)c2cc3c(c(O)c21)OCO3 [NSC266535] | -18.25%
59 | CC(C)=CCC1=C(O)c2ccccc2C(=O)C1=O [NSC11905] | -39.26%
60 | Cc1cccc(NC(=O)/C=C/c2ccc([N+](=O)[O-])cc2)c1 [NSC139109] | -11.32%
61 | Nc1nncs1 [NSC4728] | -23.83%
62 | CCCc1c(Cl)nc(Cl)nc1Cl [NSC66914] | -32.10%
63 | Cl.Cl.Cl.Cl.NCCCNCCCCNCCCN [NSC69852] | -11.66%

Row | SMILES | MEAN CpLDH INHIBITION (%)
64 | CN(C)c1ccc(/C=N/N=C2\C(=O)Nc3c(Cl)cc(Cl)cc32)cc1 [NSC327697] | -11.09%
65 | CN/N=C(\C)C(CN1CCCCC1)C(C1=C(O)c2ccccc2OC1)c1ccccc1.Cl (centres unmarked) [NSC647418] | -56.81%
66 | O=C1C=C(NCCc2ccccc2)c2ccccc2C1=O [NSC637731] | -17.56%
67 | [Mo] [NSC622116] | -10.74%
68 | CCN(CC)CCCC(C)NC(=O)c1ccc2c(c1)C(=O)c1ccccc1C2=O.Cl (centres unmarked) [NSC331757] | -61.61%
69 | O=C(CC(O)(C(F)(F)F)C(F)(F)Cl)CC(O)(C(F)(F)F)C(F)(F)Cl (centres unmarked) [NSC659174] | -13.23%
70 | Cc1nc(-c2cccnc2)sc1C(=O)/C=C/c1ccc(Cl)cc1Cl [NSC640580] | -13.66%
71 | N#CC(C#N)=Cc1cccc(Oc2ccccc2)c1 [NSC643031] | -51.68%
72 | CCCC[S+]([O-])CC(CO)NC(=O)/C=C/c1c(C)[nH]c(=O)[nH]c1=O (centres unmarked) [NSC241509] | -30.83%
73 | Nc1ccn([C@@H]2C=C(CO)[C@@H](O)[C@H]2O)c(=O)n1 [NSC375575] | -28.69%
74 | Cc1ccc(CC2(OCCN(C)C)CCC(C(C)(C)C)CC2)cc1.O=C(O)/C=C/C(=O)O (centres unmarked) [NSC670229] | -52.64%
75 | Fc1cccc(Cl)c1C1SCc2nc3ccccc3n21 (centres unmarked) [NSC625483] | -18.24%
76 | OC(CN1CCCCC1)c1ccc(/C=C/c2ccc(Cl)cc2)cc1 (centres unmarked) [NSC26040] | -70.84%
77 | CC[C@@]1(O)C[C@H](O[C@H]2C[C@H](N(C)C)[C@H](O[C@H]3C[C@@H]4O[C@H]5CC(=O)[C@H](C)O[C@H]5O[C@@H]4[C@H](C)O3)[C@H](C)O2)c2c(cc3c(c2O)C(=O)c2c(O)ccc(O)c2C3=O)[C@H]1C(=O)OC [NSC243023] | -140.35%
78 | CC1=CC(C)(C)N=C2SC(c3ccc(N)cc3)=NN12 [NSC640624] | -5.57%
79 | Br.CCCCCC(CN1CCOCC1)C(=O)/C=C/c1ccccc1 (centres unmarked) [NSC322069] | -28.89%
80 | C=Cc1cc(OC)c2c(c1)c(=O)oc1c2cc(OC)c2c(O)ccc(C3OC(C)C(O)C(C)(O)C3O)c21 (centres unmarked) [NSC354844] | -68.14%
81 | Cc1ccc(S(=O)(=O)c2ccccc2[N+](=O)[O-])cc1 [NSC627708] | -13.84%
82 | Cc1ccc(S(=O)(=O)SC/C=C/CSS(=O)(=O)c2ccc(C)cc2)cc1 [NSC624158] | -8.09%
83 | CC(=O)C(N1CCCCC1)C(O)(C(F)(F)F)C(F)(F)F (centres unmarked) [NSC664327] | -14.71%
